In patent US12637477B2, “Synthesis process of amide derivatives of hydroxypenicillanic acid” (priority 2020, dated 2026):

System: CHO-S cells
Assay: Viable cell count of CHO-S cells after 24 hours incubation (anticancer activity)
Format: cell-based, hamster
Procedure: The two compounds, by means of a standard assay, were tested on mammalian (hamster) cancer cells to evaluate possible anticancer activity.
Compound (IIB) was used at concentrations of 25 μM and 50 μM, while Peny compound was tested at concentrations up to 400 μM.
Mammalian cancer cells were then incubated for 24 hours.
Precisely, CHO-S cells were cultured in 2 mL of DMEM (Dulbecco's Modified Eagle Medium) (10% FBS, 6% Glutamax) in a 24-well plate at a density of 200×10^3 cells/per well and subsequently incubated at 37° C. in a controlled atmosphere (5% CO2) under shaking. The following day, cells were counted by means of the Countess II instrument (Thermofisher Scientific) (an automated cell counter). They were then treated with Purymycin (positive control), Peny, (IIB) compounds, and in the absence of any product (negative control), at the concentrations shown in FIG. 37.
Cell counts were performed after 24 hours to determine the number of viable cells.

| SMILES | cytotoxicity at 50 µM (50 μM, read-out: reduction of viable cells) | anticancer effect (tested at concentrations up to 400 μM) |
| --- | --- | --- |
| CC(=O)OC[C@H]1O[C@@H](OCc2cn(CCCNC(=O)[C@@H]3N4C(=O)N[C@H](C(=O)O)[C@H]4SC3(C)C)nn2)[C@H](OC(C)=O)[C@@H](OC(C)=O)[C@@H]1OC(C)=O [Compound (IIB), (3S, 7R, 7aR)-2,2-dimethyl-5-oxo-3-((3-(4-((((2R, 3R, 4S, 5R, 6R)-3,4,5-triacetoxy-6-(acetoxymethyl)tetrahydro-2H-pyran-2-yl)oxy)methyl)-1H-1,2,3-triazol-1-yl)propyl)carbamoyl)hexahydroimidazo[5,1-b]thiazole-7-carboxylic acid] | ~50% | – |
| CC(=O)OC[C@@H]1OC(n2cc(COC(=O)[C@@H]3N4C(=O)[C@@H](NC(=O)OC(C)(C)C)[C@H]4SC3(C)C)nn2)[C@@H](OC(C)=O)[C@H](OC(C)=O)[C@H]1OC(C)=O (some centres unmarked) [Penγ] | – | not associated |
